Here are results for 26 compounds from patent US20230002334A1, “TRPM8 MODULATORS” (Givaudan SA, priority 2019, published 2023).

T1 sequence (Q7Z2W7 whole entry): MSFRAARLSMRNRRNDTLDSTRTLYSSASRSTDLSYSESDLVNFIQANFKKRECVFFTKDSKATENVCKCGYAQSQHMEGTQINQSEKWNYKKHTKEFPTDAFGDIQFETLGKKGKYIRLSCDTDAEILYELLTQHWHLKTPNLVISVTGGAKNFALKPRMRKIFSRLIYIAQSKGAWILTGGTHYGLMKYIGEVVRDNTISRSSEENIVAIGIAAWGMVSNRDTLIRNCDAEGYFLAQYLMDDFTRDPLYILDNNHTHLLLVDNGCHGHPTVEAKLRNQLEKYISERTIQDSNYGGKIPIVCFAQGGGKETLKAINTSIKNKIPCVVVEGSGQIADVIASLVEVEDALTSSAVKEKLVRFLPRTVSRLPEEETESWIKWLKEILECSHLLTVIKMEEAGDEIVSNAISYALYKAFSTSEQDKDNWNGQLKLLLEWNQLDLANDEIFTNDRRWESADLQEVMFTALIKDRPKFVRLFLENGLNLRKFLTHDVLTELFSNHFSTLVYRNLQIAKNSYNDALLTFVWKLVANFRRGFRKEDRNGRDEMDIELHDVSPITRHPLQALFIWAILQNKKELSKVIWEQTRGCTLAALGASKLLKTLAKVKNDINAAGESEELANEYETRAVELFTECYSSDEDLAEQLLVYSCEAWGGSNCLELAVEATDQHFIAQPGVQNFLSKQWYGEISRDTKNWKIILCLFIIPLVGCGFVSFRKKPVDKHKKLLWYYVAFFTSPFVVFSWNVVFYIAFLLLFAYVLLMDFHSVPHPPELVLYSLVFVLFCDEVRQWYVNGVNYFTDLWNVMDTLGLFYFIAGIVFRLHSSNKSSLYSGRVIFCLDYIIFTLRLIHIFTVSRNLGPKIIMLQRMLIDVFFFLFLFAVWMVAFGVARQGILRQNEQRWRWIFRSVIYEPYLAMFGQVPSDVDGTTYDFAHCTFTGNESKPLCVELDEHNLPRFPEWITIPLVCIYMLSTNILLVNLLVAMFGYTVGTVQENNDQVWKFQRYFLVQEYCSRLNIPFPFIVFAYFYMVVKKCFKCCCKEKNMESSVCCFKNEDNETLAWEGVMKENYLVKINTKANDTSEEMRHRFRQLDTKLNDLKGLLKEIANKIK

This assay addresses T1, hTRPM8 (Homo sapiens, UniProt Q7Z2W7).
T1 construct: expressed in transfected cells
In words: Assay on TRPM8 modulators: calcium imaging (Fluo-4, Flexstation) in HEK293 cell line stably expressing hTRPM8. The format is cell-based. Conditions: HEK293 cells stably expressing hTRPM8, calcium influx, sigmoidal dose-response fit; read-out: EC50. Here is the method:
A HEK293 cell line stably expressing hTRPM8 was generated according to Klein et al., (Chem. Senses 36: 649-658, 2011) and receptor activation was monitored by calcium imaging in a Flexstation. For Ca-imaging assays of TRPM8 channel activation, cells were seeded on day 0 at a density of 12000 cells per well in Dulbecco's modified Eagle medium (DMEM) containing 9% foetal bovine serum in black, clear bottom 96-well plates that had been coated with 0.001% polyethyleneimine (molecular weight=60 000, Acros Organics). On day 2, agonists were evaluated via calcium imaging using Fluo-4. Briefly, growth medium was discarded, and the cells were incubated in the dark for 1 h at 37° C. in 50 μL loading buffer consisting of 2.7 μM Fluo-4 AM (Invitrogen) and […] probenecid (Sigma-Aldrich) in DMEM (without serum). After incubation, the plates were washed five times with 100 μL of assay buffer (in mM: 130 NaCl, 5 KCl, 10 HEPES, 2 CaCl2, and 10 glucose, pH7.4.) and further incubated in the dark at room temperature for 30 min. The cells were then washed five times with 100 μL assay buffer and then calcium influx to serial dilutions of inventive compounds were measured in a Flexstation 3 (Molecular Devices). Receptor activation was initiated following addition of 20 μl of a 10-fold concentrated ligand stock solution, which is also prepared in assay buffer. Fluorescence was continuously monitored for 15 seconds prior to ligand addition and for 105 seconds after ligand addition, for a total of 120 seconds. Maximal receptor activation in relation to solvent control and relative to 31.6 μM menthol is determined. Data from serial dilutions were processed with a KNIME workflow to fit a sigmoidal dose-response curve and to extrapolate EC50 values.
Take `CSc1ccccc1[C@]1(C)C[C@@H](C)[C@@H]2[C@@H](C1)C(C)(C)ON2C` (racemic) [Compound 31, rac-(3aR,5R,7R,7aR)-1,3,3,5,7-pentamethyl-5-(2-(methylthio)phenyl)octahydrobenzo[c]isoxazole]: the EC50 is 1000 to 35000 nM.

For `CCc1ccccc1[C@H]1C[C@@H]2[C@@H]([C@@H](C)C1)N(C(C)C)OC2(C)C` (racemic) [Compound 80, rac-(3aR,5R,7S,7aR)-5-(2-ethylphenyl)-1-isopropyl-3,3,7-trimethyloctahydrobenzo[c]isoxazole], the EC50 was in the range of 300 to 1000 nM.

For `C[C@H]1C[C@@](C)(c2cc(F)cc(C(F)(F)F)c2)C[C@@H]2[C@@H]1N(C)OC2(C)C` (racemic) [Compound 91, rac-(3aR,5R,7S,7aR)-5-(3-fluoro-5-(trifluoromethyl)phenyl)-1,3,3,5,7-pentamethyloctahydrobenzo[c]isoxazole], the EC50 is 300 to 1000 nM.

Take `Cc1ccc(Cl)cc1[C@H]1C[C@@H]2[C@@H]([C@@H](C)C1)N(C(C)C)OC2(C)C` (racemic) [Compound 106, rac-(3aR,5R,7S,7aR)-5-(5-chloro-2-methylphenyl)-1-isopropyl-3,3,7-trimethyloctahydrobenzo[c]isoxazole]: the EC50 lay in the range of 300 to 1000 nM.

As for `Cc1cc(C)c([C@@]2(C)C[C@@H]3[C@@H]([C@@H](C)C2)N(C)OC3(C)C)cc1C` (racemic) [Compound 38, rac-(3aR,5R,7S,7aR)-1,3,3,5,7-pentamethyl-5-(2,4,5-trimethylphenyl)octahydrobenzo[c]isoxazole], the EC50 lay within 50 to 300 nM.

`Cc1ccc([C@@]2(C)C[C@@H]3[C@@H]([C@@H](C)C2)N(C)OC3(C)C)cc1` (racemic) [Compound 47, rac-(3aR,5R,7S,7aR)-1,3,3,5,7-pentamethyl-5-(p-tolyl)octahydrobenzo[c]isoxazole]: the EC50 fell in the range of 50 to 300 nM.

Regarding `C[C@H]1C[C@@H](c2ccc(C(C)(C)C)cc2)C[C@@H]2[C@@H]1N(C)OC2(C)C` (racemic) [Compound 96, rac-(3aR,5R,7S,7aR)-5-(4-(tert-butyl)phenyl)-1,3,3,7-tetramethyloctahydrobenzo[c]isoxazole], the EC50 was 1000 to 35000 nM.

With `COc1ccccc1[C@@]1(C)C[C@@H]2[C@@H]([C@@H](C)C1)N(C)OC2(C)C` (racemic) [Compound 82, rac-(3aR,5R,7S,7aR)-5-(2-methoxyphenyl)-1,3,3,5,7-pentamethyloctahydrobenzo[c]isoxazole], the EC50 was in the range of 50 to 300 nM.

Consider `CC(C)N1OC(C)(C)[C@@H]2C[C@H](c3ccc(C(C)(C)C)cc3)C[C@H](C)[C@H]21` (racemic) [Compound 97, rac-(3aR,5R,7S,7aR)-5-(4-(tert-butyl)phenyl)-1-isopropyl-3,3,7-trimethyloctahydrobenzo[c]isoxazole], for which the EC50 lay in the range of 1000 to 35000 nM.

`CCCC[C@@H]1CC[C@@H]2[C@@H](C1)C(C)(C)ON2CC` (racemic) [Compound 28, rac-(3aR,5R,7aR)-5-butyl-1-ethyl-3,3-dimethyloctahydrobenzo[c]isoxazole]: the EC50 lay within 300 to 1000 nM.

For `CC1CC(C)(c2cccnc2)CC2C1N(C)OC2(C)C` (centres unmarked) [Compound 3, 1,3,3,5,7-pentamethyl-5-(pyridin-3-yl)octahydrobenzo[c]isoxazole], the EC50 lay within 1000 to 35000 nM.

Regarding `Cc1c(C#N)cccc1C1(C)CC(C)C2C(C1)C(C)(C)ON2C` (centres unmarked) [Compound 15, 2-methyl-3-(1,3,3,5,7-pentamethyloctahydrobenzo[c]isoxazol-5-yl)benzonitrile], the EC50 was 300 to 1000 nM.

As to `C[C@H]1C[C@@](C)(c2cccc3ccccc23)C[C@@H]2[C@@H]1N(C)OC2(C)C` (racemic) [Compound 44, rac-(3aR,5R,7S,7aR)-1,3,3,5,7-pentamethyl-5-(naphthalen-1-yl)octahydrobenzo[c]isoxazole], the concentration for a half-maximal effect (EC50) is 300 to 1000 nM.

As to `Cc1cc([C@@]2(C)C[C@@H]3[C@@H]([C@@H](C)C2)N(C)OC3(C)C)cs1` (racemic) [Compound 42, rac-(3aR,5R,7S,7aR)-1,3,3,5,7-pentamethyl-5-(5-methylthiophen-3-yl)octahydrobenzo[c]isoxazole], the EC50 is 50 to 300 nM.

Consider `CCN1OC(C)(C)[C@@H]2C[C@](C)(c3ccccc3C)C[C@H](C)[C@H]21` (racemic) [Compound 54, rac-(3aR,5R,7S,7aR)-1-ethyl-3,3,5,7-tetramethyl-5-(o-tolyl)octahydrobenzo[c]isoxazole], for which the EC50 is < 50 nM.

`Cc1ccccc1[C@H]1C[C@@H]2[C@@H]([C@@H](C)C1)N(C)OC2(C)C` (racemic) [Compound 51, rac-(3aR,5R,7S,7aR)-1,3,3,7-tetramethyl-5-(o-tolyl)octahydrobenzo[c]isoxazole]: the EC50 was 300 to 1000 nM.

As to `CCC[C@@]1(C)C[C@@H]2[C@@H]([C@@H](C)C1)N(C)OC2(C)C` (racemic) [Compound 49, rac-(3aR,5R,7S,7aR)-1,3,3,5,7-pentamethyl-5-propyloctahydrobenzo[c]isoxazole], the EC50 fell in the range of 300 to 1000 nM.

With `Cc1ccccc1[C@@]1(C)C[C@@H]2[C@@H]([C@@H](C)C1)N(C(C)C)OC2(C)C` (racemic) [Compound 59, rac-(3aR,5R,7S,7aR)-1-isopropyl-3,3,5,7-tetramethyl-5-(o-tolyl)octahydrobenzo[c]isoxazole], the EC50 lay within 50 to 300 nM.

On to `Cc1ccc(F)cc1[C@H]1C[C@@H]2[C@@H]([C@@H](C)C1)N(C)OC2(C)C` (racemic) [Compound 108, rac-(3aR,5R,7S,7aR)-5-(5-fluoro-2-methylphenyl)-1,3,3,7-tetramethyloctahydrobenzo[c]isoxazole], for which the concentration giving a half-maximal response (EC50) is 300 to 1000 nM.

In the case of `CC1CC(C)C2C(C1)C1(CCCC1)ON2C` (centres unmarked) [Compound 8, 1,5,7-trimethylhexahydro-1H-spiro[benzo[c]isoxazole-3,1′-cyclopentane]], the EC50 was 1000 to 35000 nM.

For the compound `C[C@@H]1C[C@@](C)(c2ccc(Cl)c(C#N)c2)C[C@H]2[C@H]1N(C)OC2(C)C` (racemic) [Compound 122, rac-2-chloro-5-((3aS,5R,7R,7aS)-1,3,3,5,7-pentamethyloctahydrobenzo[c]isoxazol-5-yl)benzonitrile], the EC50 lay in the range of 1000 to 35000 nM.

`CCC1(C)CC(C)C2C(C1)C(C)(C)ON2C` (centres unmarked) [Compound 20, 5-ethyl-1,3,3,5,7-pentamethyloctahydrobenzo[c]isoxazole]: the EC50 is 1000 to 35000 nM.

For the compound `CCN1OC(C)(C)[C@@H]2C[C@](C)(c3ccccc3C)C[C@@H](C)[C@H]21` (racemic) [Compound 33, rac-(3aR,5R,7R,7aR)-1-ethyl-3,3,5,7-tetramethyl-5-(o-tolyl)octahydrobenzo[c]isoxazole], the EC50 lay within 300 to 1000 nM.

Regarding `CC(C)N1OC(C)(C)[C@@H]2C[C@](C)(c3ccccc3)C[C@H](C)[C@H]21` (racemic) [Compound 60, rac-(3aR,5R,7S,7aR)-1-isopropyl-3,3,5,7-tetramethyl-5-phenyloctahydrobenzo[c]isoxazole], the EC50 was 50 to 300 nM.

Regarding `CCN1OC(C)(C)[C@@H]2C[C@H](c3ccccc3OC)C[C@H](C)[C@H]21` (racemic) [Compound 57, rac-(3aR,5R,7S,7aR)-1-ethyl-5-(2-methoxyphenyl)-3,3,7-trimethyloctahydrobenzo[c]isoxazole], the EC50 is < 50 nM.

`CCN1OC(C)(C)[C@@H]2C[C@](C)(c3cc(C#N)ccc3C)C[C@H](C)[C@H]21` (racemic) [Compound 125, rac-3-((3aR,5R,7S,7aR)-1-ethyl-3,3,5,7-tetramethyloctahydrobenzo[c]isoxazol-5-yl)-4-methylbenzonitrile]: the EC50 was < 50 nM.

The term EC50 denotes the concentration giving half of the maximal effect.
